The results in this text go back to US20240182561A1, “CALCIUM VOLTAGE-GATED CHANNEL AUXILIARY SUBUNIT GAMMA 1 (CACNG1) BINDING PROTEINS AND CACNG1-MEDIATED DELIVERY TO SKELETAL MUSCLE” (Regeneron Pharmaceuticals, Inc., priority 2022, published 2024).

The subject of one data set is HEK293. The experiment in a line: Indirect (secondary) cell killing assay. In kind it is cell-based, human. Particulars: Table 11-3; maximum % kill. The text has this: To test the ability of anti-CACNG1 antibodies described herein to bind, internalize, and deliver payloads, cell binding and indirect cell killing assays were developed with primary human skeletal myoblasts (Cook Myosite Cat #SkMDC SK-1111), C2C12 mouse myoblasts (ATCC Cat #CRL-1772), and HEK293 cells engineered to express human and mouse CACNG1 (HEK293/hCACNG1 and HEK293/mCACNG1, respectively). To generate the HEK293/hCACNG1 and HEK293/mCACNG1 cell lines, FuGEGE 6 (Promega, Cat #E2691/5/3) was used to transfect HEK293HZ cells with a human CACNG1 (hCACNG1; amino acid M1-H222, Accession #NP_000718.1) or mouse CACNG1 (mCACNG1; amino acid M1-H223, Accession #NP_031608.1) expression vector. HEK293HZ is a highly transfectable subclone of HEK293 cells (1) authenticated via STIR (short tandem repeat) profiling to be 81% identical to HEK293 cells sourced from ATCC). […]
(§1) An indirect cell killing assay was used to assess the ability of anti-CACNG1 antibodies to internalize and deliver payloads into cells. In vitro cytotoxicity of the anti-CACNG1 antibodies alone or in combination with Fab anti-human Fc or Fab anti-mouse Fc secondary antibodies conjugated to Duocarmycin DM (Moradec, Cat #AH-202-DD-50 or Cat #AM-202-DD-50) were evaluated using the CellTiter-Glo 2.0 Assay Kit (Promega, Cat #G9243), in which the quantity of ATP present is used to determine the number of viable cells in culture. […]

Data set [1] deals with primary human skeletal myotubes (HuSKM). Description: Indirect (secondary) cell killing assay. In kind it is cell-based. Particulars: Table 11-3; maximum % kill.
From the text: (§2) To test the ability of anti-CACNG1 antibodies described herein to bind, internalize, and deliver payloads, cell binding and indirect cell killing assays were developed with primary human skeletal myoblasts (Cook Myosite Cat #SkMDC SK-1111), C2C12 mouse myoblasts (ATCC Cat #CRL-1772), and HEK293 cells engineered to express human and mouse CACNG1 (HEK293/hCACNG1 and HEK293/mCACNG1, respectively). To generate the HEK293/hCACNG1 and HEK293/mCACNG1 cell lines, FuGEGE 6 (Promega, Cat #E2691/5/3) was used to transfect HEK293HZ cells with a human CACNG1 (hCACNG1; amino acid M1-H222, Accession #NP_000718.1) or mouse CACNG1 (mCACNG1; amino acid M1-H223, Accession #NP_031608.1) expression vector. HEK293HZ is a highly transfectable subclone of HEK293 cells (1) authenticated via STIR (short tandem repeat) profiling to be 81% identical to HEK293 cells sourced from ATCC). The HEK293HZ cell line was maintained in DMEM+10% FBS+1% L-glutamine/penicillin/streptomycin, while HEK293/hCACNG1 and HEK293/mCACNG1 cell lines were maintained in DMEM+10% FBS+1% L-glutamine/penicillin/streptomycin+500 ug/mL G418. Human skeletal myoblasts (HuSKM) were maintained in MyoTonic Basal Media (Cook Myosite Cat #MB-2222) supplemented with MyoTonic Growth Supplement (Cook Myosite Cat #MS-3333) and grown in a 37° C. incubator with 5% CO2. HuSKM were seeded in collagen-coated 96-well plates (Greiner Bio-One #655956) at 8,500 cells/well and grown for 24 hours. The growth media was changed to MyoTonic Differentiation Media (Cook Myosite Cat #MD-5555) and replaced every 2 days. Myotubes were assayed after 6 days of differentiation. C2C12 mouse myoblasts were maintained in DMEM with 10% FBS and 1% penicillin-streptomycin supplement and grown in a 37° C. incubator with 5% CO2. C2C12 cells were seeded in collagen-coated 96-well plates (Greiner Bio-One #655956) at 10,000 cells/well for the cell binding assay and 5,000 cells/well for the cell killing assay. After 24 hours, growth media was replaced with differentiation media (DMEM with 2% horse serum) and placed in a 37° C. incubator with 7.5% CO2. C2C12 myotubes were assayed after 3 days of differentiation. […]
as §1

The target in the next data set is T1, HEK293/mCACNG1 (Mus musculus, UniProt O70578).
T1 construct: mouse CACNG1 (mCACNG1); expressed in transfected cells
T1 sequence (O70578 1-223): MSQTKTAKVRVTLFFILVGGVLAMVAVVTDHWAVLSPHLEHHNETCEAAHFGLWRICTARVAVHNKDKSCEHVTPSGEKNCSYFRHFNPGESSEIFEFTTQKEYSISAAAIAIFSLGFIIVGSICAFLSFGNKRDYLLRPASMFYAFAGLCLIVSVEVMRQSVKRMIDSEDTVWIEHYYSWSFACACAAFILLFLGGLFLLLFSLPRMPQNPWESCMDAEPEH
Description: Indirect (secondary) cell killing assay. To be noted: Table 11-3; maximum % kill. In kind it is cell-based.
From the text: as §2, §1

The subject of a further data set is mouse myotubes (C2C12). The experiment in a line: Indirect (secondary) cell killing assay. In kind it is cell-based. To be noted: Table 11-3; maximum % kill.
From the text: as §2, §1

In a further data set the target is T2, HEK293/hCACNG1 (Homo sapiens, UniProt Q06432).
T2 construct: human CACNG1 (hCACNG1); expressed in transfected cells
T2 sequence (Q06432 whole entry): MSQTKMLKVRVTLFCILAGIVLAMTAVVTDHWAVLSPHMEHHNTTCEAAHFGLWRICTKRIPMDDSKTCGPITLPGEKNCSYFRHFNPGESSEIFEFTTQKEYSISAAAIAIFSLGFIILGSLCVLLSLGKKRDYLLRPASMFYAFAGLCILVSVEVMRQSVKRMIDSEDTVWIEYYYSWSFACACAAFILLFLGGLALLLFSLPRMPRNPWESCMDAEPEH
Description: Indirect (secondary) cell killing assay. In kind it is cell-based. To be noted: Table 11-3; maximum % kill = 100 - minimum percent viability.
From the text: as §2, §1

For a further data set, the system named is Dmpk. The experiment in a line: In vivo siRNA durability of Dmpk knockdown. Also noted: species or system mouse. To be noted: 1 week post treatment, 3 and 5 mg/kg siRNA; FIGS. 13A-13E.

Description for Dmpk: All doses were adjusted for drug-to-antibody (DAR) ratio, i.e., mice were dosed based on siRNA amount for body weight, as determined by liquid chromatography electrospray ionization approaches described herein. […] Mice were sacrificed at either 1 week, 3 weeks, or 6 weeks post dosing. […] The following tissues were placed into RNAlater (ThermoFisher Catalog #AM7021): gastrocnemius, soleus, quadricep, tibialis anterior, diaphragm, heart, liver, spleen, kidney. Tissues were allowed to sit in RNAlater for at least 2 hours at room temperature before being transferred to −20° C. Total RNA was purified using MagMAX™-96 for Microarrays Total RNA Isolation Kit Catalog #AM1839 (Ambion by Life Technologies) according to manufacturer's specifications. […] Samples were then reverse transcribed using SuperScript VILO MasterMix (Invitrogen Catalog #11755-250) according to manufacturer's specifications. For TaqMan gene expression analysis, TaqMan Gene Expression MasterMix (ThermoFisher Scientific Ref #4369016) was used according to manufacturer's specifications. The probes used in the assay were as followed: Dmpk FAM (ThermoFisher Mm00446261_m1) and Rplp0 (ThermoFisher Mm01974474_gH).

Take `COC(=O)c1cc2c([nH]1)C(=O)C=C1N(C(=O)c3cc4cc(OC)c(OC)c(OC)c4[nH]3)C[C@H]3C[C@]123` [Duocarmycin]: the “% KILL” value in the data set on HEK293 is reported as 99.6%; in data set [1], 97.3%; at HEK293/mCACNG1, 99.8%; in the data set with mouse myotubes (C2C12), 99.6%; on HEK293/hCACNG1 it was 99.7%.

For the compound “naked siRNA: siRNA against DMPK (siRNA1), SEQ ID NO: 416 sense and 417 antisense, used unconjugated as control (sense CCUCGGUAUUUAUUGUCUA; antisense UAGACAAUAAAUACCGAGG; listed as RNA, further chemistry not given here)”, the “Dmpk knockdown in skeletal muscle” value with Dmpk is given as “no noticeable knockdown”.
